This is an account of results in patent US20260000698A1 (priority 2022, published 2026).

For one series, the target named is T1, SUV39H1 (Homo sapiens, UniProt O43463).
T1 construct: purchased BPS Bioscience
T1 sequence (O43463 1-412): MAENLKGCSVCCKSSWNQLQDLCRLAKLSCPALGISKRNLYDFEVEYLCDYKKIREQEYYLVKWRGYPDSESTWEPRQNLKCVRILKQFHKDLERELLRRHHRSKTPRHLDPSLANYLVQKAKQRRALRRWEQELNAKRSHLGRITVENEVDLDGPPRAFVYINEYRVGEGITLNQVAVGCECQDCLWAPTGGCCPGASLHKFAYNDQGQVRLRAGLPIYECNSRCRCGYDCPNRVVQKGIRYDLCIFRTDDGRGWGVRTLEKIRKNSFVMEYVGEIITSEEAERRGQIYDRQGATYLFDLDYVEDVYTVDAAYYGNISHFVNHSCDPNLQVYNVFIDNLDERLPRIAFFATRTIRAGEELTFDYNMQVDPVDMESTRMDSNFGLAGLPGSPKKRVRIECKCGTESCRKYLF
Nature of the series: Human MTase screening: SUV39H1. The format is biochemical. Here is the method: (§1) Assay conditions. The human methyltransferase inhibition assays were performed at BPS Bioscience (San Diego, CA, USA). All of the enzymatic reactions were conducted in duplicate at room temperature for 60-960 min in a 50 μL mixture containing proper methyltransferase assay buffer, S-adenosylmethionine (SAM), enzyme, and the test compound. These 50 μL reactions were carried out in wells of a substrate pre-coated plate. First, enzyme and inhibitor were added to assay wells and preincubated for 30 min at room temperature, then SAM was added to start the reaction. Final DMSO concentration was 1% in all reactions.
(§2) After enzymatic reactions, the reaction mixtures were discarded and each of the wells was washed three times with TBST buffer, and slowly shaken with Blocking Buffer for 10 min. Wells were emptied, and 100 μL of diluted primary antibody was added. The plate was then slowly shaken for 60 minutes at room temperature. […] Immediately, the luminescence of the samples was measured in a BioTek Synergy™ 2 (Winooski, VT, USA) microplate reader using Gen5 software.
(§3) Data analysis. […] The luminescence data/alpha counts were analyzed and compared. […] The percent activity in the presence of each compound was calculated according to the following equation: % activity=(C−C0)/(Ce−C0), where C=the luminescence/alpha counts in the presence of the compound.

A further series has as its target T2, METTL3/METTL14 (Homo sapiens, UniProt Q86U44).
T2 construct: purchased BPS Bioscience
Nature of the series: Human MTase screening: METTL3/METTL14. The format is biochemical. Here is the method:
as §1, §2, §3

Another series deals with A549/ACE2/TMPRSS2 cells. Nature of the series: in vitro. The conditions noted are these: cell viability at 50 μM.
Another series concerns the target T3, DNMT1 (Homo sapiens, UniProt P26358).
T3 construct: purchased BPS Bioscience
Kind of series: Human MTase screening: DNMT1. Format: biochemical. The procedure:
as §1, §2, §3

Assay in series [1]: not given
The source holds these as a separate data set.

The next series concerns the target T4, EZH1 (Homo sapiens, UniProt Q92800).
T4 construct: purchased BPS Bioscience
Kind of series: Human MTase screening: EZH1. Format: biochemical. The procedure:
as §1, §2, §3

The next series addresses T5, PRMT3 (Homo sapiens, UniProt O60678).
T5 construct: purchased BPS Bioscience
Kind of series: Human MTase screening: PRMT3. Format: biochemical. The procedure:
as §1, §2, §3

For a further series, the target named is SARS-CoV-2 Nsp14 MTase (Severe acute respiratory syndrome coronavirus 2, UniProt P0DTD1). Kind of series: biochemical. Format: biochemical.
A further series addresses T6, PRMT1 (Homo sapiens, UniProt Q99873).
T6 construct: purchased BPS Bioscience
Kind of series: Human MTase screening: PRMT1. Format: biochemical. Here is the method:
as §1, §2, §3

A further series addresses T7, DOT1L (Homo sapiens, UniProt Q8TEK3).
T7 construct: purchased BPS Bioscience
Kind of series: Human MTase screening: DOT1L. The format is biochemical. The procedure: as §1, §2, §3

The next series addresses T8, DNMT3A/DNMT3L (Homo sapiens, UniProt Q9Y6K1).
T8 construct: purchased BPS Bioscience
Kind of series: Human MTase screening: DNMT3A/DNMT3L. The format is biochemical. Here is the method: as §1, §2, §3

T4 sequence (Q92800 whole entry): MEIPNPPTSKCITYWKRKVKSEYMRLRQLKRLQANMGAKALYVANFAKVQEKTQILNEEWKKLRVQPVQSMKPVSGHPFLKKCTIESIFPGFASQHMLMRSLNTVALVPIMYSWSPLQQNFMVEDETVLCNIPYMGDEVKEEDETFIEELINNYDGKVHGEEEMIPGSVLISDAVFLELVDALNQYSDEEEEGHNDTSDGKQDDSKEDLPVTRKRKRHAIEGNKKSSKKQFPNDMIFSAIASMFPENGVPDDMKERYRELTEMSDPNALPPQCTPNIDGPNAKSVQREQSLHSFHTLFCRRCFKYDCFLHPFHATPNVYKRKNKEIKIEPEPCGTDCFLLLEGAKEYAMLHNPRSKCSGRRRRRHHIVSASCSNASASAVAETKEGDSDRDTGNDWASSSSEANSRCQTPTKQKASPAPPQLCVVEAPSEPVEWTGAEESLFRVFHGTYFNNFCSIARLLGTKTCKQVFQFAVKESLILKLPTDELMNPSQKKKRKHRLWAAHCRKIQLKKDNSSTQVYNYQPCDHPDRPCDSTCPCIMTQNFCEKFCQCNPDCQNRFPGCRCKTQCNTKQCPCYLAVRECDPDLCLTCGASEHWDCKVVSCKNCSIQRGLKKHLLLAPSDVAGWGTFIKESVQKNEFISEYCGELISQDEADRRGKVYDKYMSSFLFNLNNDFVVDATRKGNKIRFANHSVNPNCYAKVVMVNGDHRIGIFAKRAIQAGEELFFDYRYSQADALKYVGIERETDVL
T4 sequence (O75530 whole entry partner): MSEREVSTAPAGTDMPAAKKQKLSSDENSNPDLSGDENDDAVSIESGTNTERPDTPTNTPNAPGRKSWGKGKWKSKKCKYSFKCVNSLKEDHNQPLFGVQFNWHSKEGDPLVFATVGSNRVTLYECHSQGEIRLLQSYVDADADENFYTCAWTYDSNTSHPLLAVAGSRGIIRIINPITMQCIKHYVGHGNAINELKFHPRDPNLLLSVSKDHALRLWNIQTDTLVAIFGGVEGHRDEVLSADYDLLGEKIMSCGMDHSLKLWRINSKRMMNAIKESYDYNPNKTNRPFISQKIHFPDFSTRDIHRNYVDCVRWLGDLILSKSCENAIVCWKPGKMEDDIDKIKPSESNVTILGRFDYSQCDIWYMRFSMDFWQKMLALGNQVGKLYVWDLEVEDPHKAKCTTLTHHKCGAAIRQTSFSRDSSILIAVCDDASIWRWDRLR
T4 sequence (Q15022 whole entry partner): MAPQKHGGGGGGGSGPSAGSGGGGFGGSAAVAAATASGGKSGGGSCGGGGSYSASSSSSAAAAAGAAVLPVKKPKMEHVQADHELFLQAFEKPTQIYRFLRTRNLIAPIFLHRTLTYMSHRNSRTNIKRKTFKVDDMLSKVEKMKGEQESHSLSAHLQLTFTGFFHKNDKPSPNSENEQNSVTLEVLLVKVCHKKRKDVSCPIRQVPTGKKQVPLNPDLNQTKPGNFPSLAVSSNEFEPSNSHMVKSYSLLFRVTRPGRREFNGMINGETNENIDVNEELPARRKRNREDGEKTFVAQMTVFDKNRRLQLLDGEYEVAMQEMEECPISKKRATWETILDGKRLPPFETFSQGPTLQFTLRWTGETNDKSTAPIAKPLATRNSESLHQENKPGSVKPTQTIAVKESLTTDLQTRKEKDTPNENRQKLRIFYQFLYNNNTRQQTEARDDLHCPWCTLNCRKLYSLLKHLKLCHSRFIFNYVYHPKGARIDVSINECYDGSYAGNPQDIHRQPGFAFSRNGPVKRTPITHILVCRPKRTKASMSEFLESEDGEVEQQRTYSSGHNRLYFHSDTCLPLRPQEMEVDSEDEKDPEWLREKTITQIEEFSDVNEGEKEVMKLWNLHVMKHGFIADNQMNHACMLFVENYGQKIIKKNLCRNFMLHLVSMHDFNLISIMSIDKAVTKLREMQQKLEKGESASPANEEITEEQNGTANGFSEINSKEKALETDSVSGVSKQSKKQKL
T4 sequence (Q09028 whole entry partner): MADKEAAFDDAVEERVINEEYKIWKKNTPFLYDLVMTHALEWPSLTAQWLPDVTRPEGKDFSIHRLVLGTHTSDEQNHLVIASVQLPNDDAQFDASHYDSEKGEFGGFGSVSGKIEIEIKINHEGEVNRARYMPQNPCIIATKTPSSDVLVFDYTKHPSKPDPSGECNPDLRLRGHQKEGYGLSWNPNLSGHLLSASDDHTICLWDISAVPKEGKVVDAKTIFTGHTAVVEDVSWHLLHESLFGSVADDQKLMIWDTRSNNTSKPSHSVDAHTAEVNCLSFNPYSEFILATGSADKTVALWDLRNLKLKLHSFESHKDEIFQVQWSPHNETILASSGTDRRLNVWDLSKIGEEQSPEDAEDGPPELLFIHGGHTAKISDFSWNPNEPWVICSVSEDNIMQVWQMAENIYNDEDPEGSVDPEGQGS
T4 sequence (Q6ZN18 whole entry partner): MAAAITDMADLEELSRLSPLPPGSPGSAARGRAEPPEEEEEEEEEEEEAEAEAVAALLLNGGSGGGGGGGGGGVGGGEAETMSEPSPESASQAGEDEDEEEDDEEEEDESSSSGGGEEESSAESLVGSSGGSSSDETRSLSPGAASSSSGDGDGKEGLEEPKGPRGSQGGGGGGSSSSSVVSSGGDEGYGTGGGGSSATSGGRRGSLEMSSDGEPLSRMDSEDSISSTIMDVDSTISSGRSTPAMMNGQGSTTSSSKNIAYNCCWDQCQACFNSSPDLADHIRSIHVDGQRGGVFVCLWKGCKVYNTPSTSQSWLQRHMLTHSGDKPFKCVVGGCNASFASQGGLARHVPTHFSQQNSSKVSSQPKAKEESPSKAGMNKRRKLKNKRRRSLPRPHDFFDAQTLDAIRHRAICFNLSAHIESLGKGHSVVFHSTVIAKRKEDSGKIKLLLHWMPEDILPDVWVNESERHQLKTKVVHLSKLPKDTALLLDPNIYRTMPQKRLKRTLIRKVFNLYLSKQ
T2 sequence (Q86U44 whole entry): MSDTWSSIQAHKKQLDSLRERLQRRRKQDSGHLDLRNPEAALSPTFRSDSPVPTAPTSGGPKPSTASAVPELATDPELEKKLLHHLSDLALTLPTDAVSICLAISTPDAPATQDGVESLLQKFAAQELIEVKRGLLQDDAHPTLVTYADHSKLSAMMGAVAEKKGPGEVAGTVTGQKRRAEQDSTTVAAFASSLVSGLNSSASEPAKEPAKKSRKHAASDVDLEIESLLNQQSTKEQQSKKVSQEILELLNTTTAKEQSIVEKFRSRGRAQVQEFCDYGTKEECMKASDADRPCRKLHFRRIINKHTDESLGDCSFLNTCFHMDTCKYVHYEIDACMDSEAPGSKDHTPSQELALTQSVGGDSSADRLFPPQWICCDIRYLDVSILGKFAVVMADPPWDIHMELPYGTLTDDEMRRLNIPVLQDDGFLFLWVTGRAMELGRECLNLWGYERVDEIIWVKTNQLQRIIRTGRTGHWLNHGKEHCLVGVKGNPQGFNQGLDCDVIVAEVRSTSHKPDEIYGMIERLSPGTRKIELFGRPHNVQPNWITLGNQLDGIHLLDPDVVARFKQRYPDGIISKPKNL
T2 sequence (Q9HCE5 whole entry partner): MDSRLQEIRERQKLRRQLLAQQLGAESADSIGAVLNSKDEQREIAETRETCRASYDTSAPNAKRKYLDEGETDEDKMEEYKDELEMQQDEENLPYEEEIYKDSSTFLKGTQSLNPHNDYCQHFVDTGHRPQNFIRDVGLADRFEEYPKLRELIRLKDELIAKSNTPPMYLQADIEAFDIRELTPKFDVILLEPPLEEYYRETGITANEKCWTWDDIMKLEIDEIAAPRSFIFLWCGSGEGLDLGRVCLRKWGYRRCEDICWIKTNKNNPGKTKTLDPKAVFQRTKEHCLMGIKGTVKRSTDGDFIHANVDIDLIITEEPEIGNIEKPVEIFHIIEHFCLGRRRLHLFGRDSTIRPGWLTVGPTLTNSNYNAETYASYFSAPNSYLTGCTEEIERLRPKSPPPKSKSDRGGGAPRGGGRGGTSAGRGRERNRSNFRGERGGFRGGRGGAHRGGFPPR
T6 sequence (Q99873 whole entry): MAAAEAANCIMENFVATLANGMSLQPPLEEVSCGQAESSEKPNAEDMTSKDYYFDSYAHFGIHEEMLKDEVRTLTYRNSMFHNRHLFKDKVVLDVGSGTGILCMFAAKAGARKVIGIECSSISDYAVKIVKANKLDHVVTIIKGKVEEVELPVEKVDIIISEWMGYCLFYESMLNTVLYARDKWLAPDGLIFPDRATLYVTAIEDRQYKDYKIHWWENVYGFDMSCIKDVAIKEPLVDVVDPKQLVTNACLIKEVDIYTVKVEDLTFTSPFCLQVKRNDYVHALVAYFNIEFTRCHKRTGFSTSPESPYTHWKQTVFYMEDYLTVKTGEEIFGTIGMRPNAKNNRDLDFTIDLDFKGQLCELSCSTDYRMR
T5 sequence (O60678 whole entry): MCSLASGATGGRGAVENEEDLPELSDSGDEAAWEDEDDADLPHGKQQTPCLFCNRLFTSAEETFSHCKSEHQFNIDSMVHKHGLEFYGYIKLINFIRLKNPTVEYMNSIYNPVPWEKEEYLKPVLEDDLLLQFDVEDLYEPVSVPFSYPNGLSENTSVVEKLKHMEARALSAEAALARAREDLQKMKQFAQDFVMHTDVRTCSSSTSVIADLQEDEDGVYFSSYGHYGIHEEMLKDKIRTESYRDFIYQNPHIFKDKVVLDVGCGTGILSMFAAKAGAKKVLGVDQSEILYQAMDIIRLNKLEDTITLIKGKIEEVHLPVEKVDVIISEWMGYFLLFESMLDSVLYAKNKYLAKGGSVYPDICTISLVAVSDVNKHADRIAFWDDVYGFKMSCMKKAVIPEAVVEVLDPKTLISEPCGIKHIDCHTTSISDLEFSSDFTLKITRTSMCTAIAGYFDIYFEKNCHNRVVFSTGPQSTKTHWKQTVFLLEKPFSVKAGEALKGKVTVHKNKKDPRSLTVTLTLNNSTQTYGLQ

The inhibition is the change of the read-out against control, counted positive when it falls. As a reminder, the IC50 is the concentration at which inhibition is half-maximal. For `Nc1ncnc2c1ncn2[C@@H]1O[C@H](CNS(=O)(=O)c2ccc3ccccc3c2)[C@@H](O)[C@H]1O` [Compound 3, N-(((2R,3S,4R,5R)-5-(6-Amino-9H-purin-9-yl)-3,4-dihydroxytetrahydrofuran-2-yl)methyl)naphthalene-2-sulfonamide], the “stability in mouse liver S9 fractions” value was “resistant to phase I and II transformations”. Besides, at SUV39H1, the inhibition at 10 µM was found to be 11%. The inhibition at 10 µM at METTL3/METTL14 was determined as 10%. Moreover, the “CC50: NT (nontoxic)” value in the series on A549/ACE2/TMPRSS2 cells was “NT^b (NT, nontoxic, >95% cell viability at 50 μM;)”. Also, at DNMT1, the inhibition at 10 µM was determined as 5%. Also, the “stability in human liver S9 fractions” value in [1] was “resistant to phase I and II transformations”. In addition, the inhibition at 10 µM at EZH1 is 2%. On PRMT3, the inhibition at 10 µM turned out to be 0%. In addition, the IC50 at SARS-CoV-2 Nsp14 MTase (LC-MS/MS assay, read-out: IC50) stood at 61 nM. In addition, the “fold more active than compound 1” value on SARS-CoV-2 Nsp14 MTase (MTase IC50 vs compound 1) is on record as above 150 fold. Also, the inhibition at 10 µM on PRMT1 worked out at 5%. The inhibition at 10 µM on DOT1L was 10%. Further, the inhibition at 10 µM at DNMT3A/DNMT3L was found to be 4%.
